# From US10239832B2, “N-(1-hydroxy-3-(pyrrolidinyl)propan-2-yl)pyrrolidine-3-carboxamide derivatives as glucosylceramide synthase inhibitors” (BIOMARIN PHARMACEUTICAL INC., priority 2013, dated 2019)
# Target: T1, GCS (Canis lupus familiaris, UniProt A0A8I3MXG6)
# T1 construct: endogenous in cells; host or cells: MDCK (Madin-Darby canine kidney) cells, whole-cell lysate
# T1 sequence (A0A8I3MXG6 1-394): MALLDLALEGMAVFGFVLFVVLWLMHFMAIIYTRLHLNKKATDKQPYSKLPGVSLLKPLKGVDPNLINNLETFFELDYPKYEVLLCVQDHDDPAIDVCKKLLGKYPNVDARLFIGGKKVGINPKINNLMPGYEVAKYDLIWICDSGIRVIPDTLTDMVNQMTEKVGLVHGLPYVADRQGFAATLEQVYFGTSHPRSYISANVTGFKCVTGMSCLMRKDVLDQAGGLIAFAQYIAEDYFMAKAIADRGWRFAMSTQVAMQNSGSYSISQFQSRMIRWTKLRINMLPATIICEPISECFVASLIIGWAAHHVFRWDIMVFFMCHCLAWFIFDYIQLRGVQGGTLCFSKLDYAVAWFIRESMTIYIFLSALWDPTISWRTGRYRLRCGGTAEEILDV
# Experiment: GCS enzymatic assay (MDCK cell lysate, NBD-ceramide to glucosylceramide, LC/MS)
# Format: biochemical, canine
# Settings: Table 2; class symbols A, B, C; the table does not say which of the assays; read-out: Data Range (IC50 values)
# Outline: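 Dog MDCK cell lysate served as enzyme source, with NBD-ceramide turned over to glucosylceramide and 0.1% DMSO as mock control. The reaction was stopped with acetonitrile. Both lipids were quantified by LC/MS/MS in ESI positive MRM mode against a tolbutamide internal standard, giving IC50 or percent inhibition.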
row,IC50 [µM],SMILES
1,0.001 to 0.03,"O=C(N[C@H](CN1CCCC1)[C@H](O)c1ccc(OC2CC2)c(Cl)c1)[C@@H]1CCN(c2ccc3ccccc3c2)C1 [Compound 67, (R)-N-((1R,2R)-1-(3-chloro-4-cyclopropoxyphenyl)-1-hydroxy-3-(pyrrolidin-1-yl)propan-2-yl)-1-(naphthalen-2-yl)pyrrolidine-3-carboxamide]"
2,0.001 to 0.03,"O=C(N[C@H](CN1CCC1)[C@H](O)c1cc(F)c2c(c1)OCCO2)[C@@H]1CCN(c2ccc3cc(F)ccc3c2)C1 [Compound 47, (R)-N-((1R,2R)-3-(azetidin-1-yl)-1-(8-fluoro-2,3-dihydrobenzo[b][1,4]dioxin-6-yl)-1-hydroxypropan-2-yl)-1-(6-fluoronaphthalen-2-yl)pyrrolidine-3-carboxamide]"
3,0.03 to 0.1,"CC(C)(C)c1ccc(N2CC[C@@H](C(=O)N[C@H](CN3CCCC3)[C@H](O)c3ccc(OC4CC4)c(Cl)c3)C2)cc1 [Compound 139, (R)-1-(4-(tert-butyl)phenyl)-N-((1R,2R)-1-(3-chloro-4-cyclopropoxyphenyl)-1-hydroxy-3-(pyrrolidin-1-yl)propan-2-yl)pyrrolidine-3-carboxamide]"
4,0.001 to 0.03,"O=C(N[C@H](CN1CCC1)[C@H](O)c1ccc(OC2CC2)c(Cl)c1)[C@@H]1CCN(c2ccc(Cl)cc2)C1 [Compound 73, (R)-N-((1R,2R)-3-(azetidin-1-yl)-1-(3-chloro-4-cyclopropoxyphenyl)-1-hydroxypropan-2-yl)-1-(4-chlorophenyl)pyrrolidine-3-carboxamide]"
5,0.001 to 0.03,"O=C(N[C@H](CN1CCCC1)[C@H](O)c1ccc(OC2CC2)c(Cl)c1)[C@@H]1CCN(c2ccc3ccsc3c2)C1 [Compound 91, (R)-1-(benzo[b]thiophen-6-yl)-N-((1R,2R)-1-(3-chloro-4-cyclopropoxyphenyl)-1-hydroxy-3-(pyrrolidin-1-yl)propan-2-yl)pyrrolidine-3-carboxamide]"
6,0.001 to 0.03,"Cn1ncc2ccc(N3CC[C@@H](C(=O)N[C@H](CN4CCC4)[C@H](O)c4cc(F)c5c(c4)OCCO5)C3)cc21 [Compound 134, (R)-N-((1R,2R)-3-(azetidin-1-yl)-1-(8-fluoro-2,3-dihydrobenzo[b][1,4]dioxin-6-yl)-1-hydroxypropan-2-yl)-1-(1-methyl-1H-indazol-6-yl)pyrrolidine-3-carboxamide]"
7,0.001 to 0.03,"O=C(N[C@H](CN1CCCC1)[C@H](O)c1ccc2c(c1)OCCO2)[C@@H]1CCN(c2cccc(Oc3ccc(Cl)cc3)n2)C1 [Compound 113, (R)-1-(6-(4-chlorophenoxy)pyridin-2-yl)-N((1R,2R)-1-(2,3-dihydrobenzo[b][1,4]dioxin-6-yl)-1-hydroxy-3-(pyrrolidin-1-yl)propan-2-yl)pyrrolidine-3-carboxamide]"
8,0.001 to 0.03,"O=C(N[C@H](CN1CCC1)[C@H](O)c1cc(F)c2c(c1)OCCO2)[C@@H]1CCN(c2ccc(Cl)cc2)C1 [Compound 25, (R)-N-((1R,2R)-3-(azetidin-1-yl)-1-(8-fluoro-2,3-dihydrobenzo[b][1,4]dioxin-6-yl)-1-hydroxypropan-2-yl)-1-(4-chlorophenyl)pyrrolidine-3-carboxamide]"

# Same assay, conditions: Table 2; class symbols D, E, F, NA (not active); the table does not say which of the assays
row,Data Range (% inhibition),SMILES
1,F (1-49% (or less than 50%)),"O=C(N[C@H](CN1CCCC1)[C@H](O)c1ccc(OC2CCOCC2)c(Cl)c1)[C@H]1CCN(c2ccc(F)cc2)C1 [Compound 32A, (S)-N-((1R,2R)-1-(3-chloro-4-((tetrahydro-2H-pyran-4-yl)oxy)phenyl)-1-hydroxy-3-(pyrrolidin-1-yl)propan-2-yl)-1-(4-fluorophenyl)pyrrolidine-3-carboxamide]"
2,F (1-49% (or less than 50%)),"CN1CCc2ccc(N3CCC(C(=O)N[C@H](CN4CCCC4)[C@H](O)c4ccc5c(c4)OCCO5)C3)cc2C1 (stereo partly drawn) [Compound 63C, N-((1R,2R)-1-(2,3-dihydrobenzo[b][1,4]dioxin-6-yl)-1-hydroxy-3-(pyrrolidin-1-yl)propan-2-yl)-1-(2-methyl-1,2,3,4-tetrahydroisoquinolin-7-yl)pyrrolidine-3-carboxamide]"
3,F (1-49% (or less than 50%)),"O=C(N[C@H](CN1CCCC1)[C@H](O)c1ccc2c(c1)OCCO2)[C@H]1CCN(c2ccccn2)C1 [Compound 22D, (S)-N-((1R,2R)-1-(2,3-dihydrobenzo[b][1,4]dioxin-6-yl)-1-hydroxy-3-(pyrrolidin-l-yl)propan-2-yl)-1-(pyridin-2-yl)pyrrolidine-3-carboxamide]"
4,F (1-49% (or less than 50%)),"O=C(N[C@H](CN1CCCC1)[C@H](O)c1ccc2c(c1)OCCO2)[C@@H]1CCN(Cc2ccc(Cl)cc2)C1 [Compound 15, (R)-1-(4-chlorobenzyl)-N-((1R,2R)-1-(2,3-dihydrobenzo[b][1,4]dioxin-6-yl)-1-hydroxy-3-(pyrrolidin-1-yl)propan-2-yl)pyrrolidine-3-carboxamide]"
5,F (1-49% (or less than 50%)),"O=C(N[C@H](CN1CCCC1)[C@H](O)c1ccc2c(c1)OCCO2)C1CCN(C2CCOCC2)C1 (stereo partly drawn) [Compound 9D, N-((1R,2R)-1-(2,3-dihydrobenzo[b][1,4]dioxin-6-yl)-1-hydroxy-3-(pyrrolidin-1-yl)propan-2-yl)-1-(tetrahydro-2H-pyran-4-yl)pyrrolidine-3-carboxamide]"
6,E (50-74% (or less than 75%)),"O=C(N[C@H](CN1CCCC1)[C@H](O)c1ccc2c(c1)OCCO2)[C@@H]1CCN(c2ccc3ccsc3c2)C1 [Compound 53, (R)-1-(benzo[b]thiophen-6-yl)-N-((1R,2R)-1-(2,3-dihydrobenzo[b][1,4]dioxin-6-yl)-1-hydroxy-3-(pyrrolidin-1-yl)propan-2-yl)pyrrolidine-3-carboxamide]"
7,E (50-74% (or less than 75%)),"Cn1ncc2cc(N3CC[C@@H](C(=O)N[C@H](CN4CCCC4)[C@H](O)c4cc(F)c5c(c4)OCCO5)C3)ccc21 [Compound 125, (R)-N-((1R,2R)-1-(8-fluoro-2,3-dihydrobenzo[b][1,4]dioxin-6-yl)-1-hydroxy-3-(pyrrolidin-1-yl)propan-2-yl)-1-(1-methyl-1H-indazol-5-yl)pyrrolidine-3-carboxamide]"
8,F (1-49% (or less than 50%)),"O=C(N[C@H](CN1CCCC1)[C@H](O)c1ccc2c(c1)OCCO2)C1CCN(c2ccc(Cl)cc2Cl)C1 (stereo in doubt) [Compound 12D, (S)-1-(2,4-dichlorophenyl)-N-((1R,2R)-1-(2,3-dihydrobenzo[b][1,4]dioxin-6-yl)-1-hydroxy-3-(pyrrolidin-1-yl)propan-2-yl)pyrrolidine-3-carboxamide]"
9,F (1-49% (or less than 50%)),"O=C(N[C@H](CN1CCCC1)[C@H](O)c1ccc2c(c1)OCCO2)[C@H]1CCN(C2Cc3ccccc3C2)C1 [Compound 55B, (S)-1-(2,3-dihydro-1H-inden-2-yl)-N-((1R,2R)-1-(2,3-dihydrobenzo[b][1,4]dioxin-6-yl)-1-hydroxy-3-(pyrrolidin-1-yl)propan-2-yl)pyrrolidine-3-carboxamide]"

row,SMILES,Data Range (% inhibition)
1,"CN1CCc2ccc(N3CC[C@H](C(=O)N[C@H](CN4CCCC4)[C@H](O)c4ccc5c(c4)OCCO5)C3)cc2C1 [Compound 63D, (S)-N-((1R,2R)-1-(2,3-dihydrobenzo[b][1,4]dioxin-6-yl)-1-hydroxy-3-(pyrrolidin-1-yl)propan-2-yl)-1-(2-methyl-1,2,3,4-tetrahydroisoquinolin-7-yl)pyrrolidine-3-carboxamide]",NA (not active—a negative value was generated for % inhibition)
